Data taken from publication PMC9740255 (Cells, 2022).
Read-outs that look alike come from different tables or passages of the source.

How the values were obtained:
[1] = molecular target: T1, purified, full length dDAT (Drosophila melanogaster, UniProt Q7K4Y6); test: Competitive inhibition of [3H]nisoxetine binding to purified dDAT by scintillation proximity assay (SPA)
T1 construct: Full length dDAT with a C-terminal thrombin cleavage site followed by a His8-tag; made in house; host or cells: Expi293F suspension cells transduced with BacMam baculovirus (virus produced in Sf9)
T1 sequence (Q7K4Y6 whole entry): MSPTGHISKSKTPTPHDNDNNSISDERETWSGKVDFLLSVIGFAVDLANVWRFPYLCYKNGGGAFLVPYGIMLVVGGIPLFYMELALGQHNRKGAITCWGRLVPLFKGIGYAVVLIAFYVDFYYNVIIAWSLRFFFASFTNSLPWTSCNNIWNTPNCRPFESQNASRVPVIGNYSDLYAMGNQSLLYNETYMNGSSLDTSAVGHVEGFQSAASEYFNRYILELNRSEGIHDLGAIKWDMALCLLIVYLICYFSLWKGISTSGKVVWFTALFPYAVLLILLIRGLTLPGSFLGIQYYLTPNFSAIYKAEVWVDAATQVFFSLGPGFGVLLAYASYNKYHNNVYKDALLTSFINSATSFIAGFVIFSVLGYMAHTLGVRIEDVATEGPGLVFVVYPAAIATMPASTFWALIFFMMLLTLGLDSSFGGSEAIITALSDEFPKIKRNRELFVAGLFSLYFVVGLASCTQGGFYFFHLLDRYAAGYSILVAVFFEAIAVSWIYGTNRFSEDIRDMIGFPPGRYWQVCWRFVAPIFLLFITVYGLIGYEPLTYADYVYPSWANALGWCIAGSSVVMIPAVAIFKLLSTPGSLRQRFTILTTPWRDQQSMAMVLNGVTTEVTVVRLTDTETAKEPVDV
Description: (§1) Binding of substrates and inhibitors to purified dDAT was assessed through saturation and competition binding by scintillation proximity assay (SPA).
(§2) This mixture was incubated on rotation for 45 min in darkness at 4 °C. The dDAT-SPA buffer mixture was added to the wells along with 100 nM of the desired tritiated ligand (often at 10% specific activity) and the dilution series of the unlabelled competitor. […] The plates were sealed, mixed at RT for 1.5 h on an agitator and left to settle at RT for 30 min. […] Plates were stored at 4 °C overnight and recounted to ensure that the original data was obtained at equilibrium. All experiments were performed in triplicates.
(§3) All statistical tests and data analyses were performed in GraphPad Prism 9 (GraphPad Software, Prism 9 version 9.2.0, San Diego, CA, USA). Unless otherwise specified, all data points are given as mean ± SEM (standard error of the mean) or mean [SEM interval]. Data obtained from competition binding analyses were fitted as a non-linear regression (curve fit) through an inhibitory dose–response model (variable slope), otherwise known as a four-parameter logistic equation. The non-specific binding condition was subtracted before fitting the data. From the logIC50, the IC50 can be obtained and, therefore, the affinity (Ki) derived through the Cheng-Prusoff equation. For homologous competitive binding, whereby the same compound is used as both the labelled and unlabelled ligand, the Cheng-Prusoff equation can be converted to obtain the Kd. Data plotted as a percentage of the control (absence of the competitive ligand) unless otherwise stated, i.e., normalized to the Bmax determined from the sigmoidal fit. Saturation binding data were fitted after subtracting the non-specific binding from each condition. The data were fitted as a non-linear regression (curve fit) through a sigmoidal dose–response (variable slope) model to determine the Kd. Ion binding study data were plotted using the same four-parameter logistic equation. […] The saturation curves on each plate were fitted with a globally shared Bmax value to enable estimation of low affinity constants.

[2] = molecular target: hDAT; conditions: read-out: DAT Ki; footnote a: hDAT in HEK293 cells, [3H]CFT; ref 32 (Tatsumi et al. 1997); cited from earlier work
[3] = tested on: dDAT stably transfected into MDCK cells; design: method as in ref 25 (Pörzgen et al. 2001); conditions: uptake inhibition of [3H]dopamine, ref 25 (Pörzgen et al. 2001); cited from earlier work
[4] = molecular target: T2, dDAT expressed in COS-7 cells (Drosophila melanogaster, UniProt Q7K4Y6); test: Competition binding of [3H]nisoxetine in COS-7 cells expressing dDAT
T2 construct: Full length dDAT with a C-terminal thrombin cleavage site followed by a His8-tag; expressed in transfected cells; host or cells: COS-7 cells, transient transfection
T2 sequence (Q7K4Y6 whole entry): as above
Description: (§4) COS-7 cells (a generous gift from Prof. U. Gether, Univ. of Copenhagen) were transiently transfected in Opti-MEM media (ThermoFisher Scientific, Waltham, MA, USA) using lipofectamine 3000 (ThermoFisher Scientific, Waltham, MA, USA) with 0.36 µg hDAT in the pcDNA3.1 vector, 0.36–0.47 µg hNET in the pcDNA3.1 vector or 0.83–1.6 µg dDAT in pEG BacMam vector per 10^6 cells, in a lipofectamine:DNA (w/w) ratio of 3.5. Cells were seeded in 24-well plates (5 × 10^4/well) coated with poly-ornithine and incubated in 10% CO2 at 37 °C in DMEM media supplemented with 1% FBS.
(§5) Competition binding assays were performed directly in the culture dish 48 h after transfection of the cells. The competition binding experiments were carried out at room temperature (RT). […] All experiments were performed in triplicates.
as §3

[5] = molecular target: T3, hNET expressed in COS-7 cells (Homo sapiens, UniProt P23975); test: Competition binding of [3H]nisoxetine in COS-7 cells expressing hNET; conditions: hNET in COS-7 cells; competitive inhibition of [3H]nisoxetine binding; mean [SEM interval]; read-out: NET Ki
T3 construct: expressed in transfected cells; host or cells: COS-7 cells, transient transfection
T3 sequence (P23975 whole entry): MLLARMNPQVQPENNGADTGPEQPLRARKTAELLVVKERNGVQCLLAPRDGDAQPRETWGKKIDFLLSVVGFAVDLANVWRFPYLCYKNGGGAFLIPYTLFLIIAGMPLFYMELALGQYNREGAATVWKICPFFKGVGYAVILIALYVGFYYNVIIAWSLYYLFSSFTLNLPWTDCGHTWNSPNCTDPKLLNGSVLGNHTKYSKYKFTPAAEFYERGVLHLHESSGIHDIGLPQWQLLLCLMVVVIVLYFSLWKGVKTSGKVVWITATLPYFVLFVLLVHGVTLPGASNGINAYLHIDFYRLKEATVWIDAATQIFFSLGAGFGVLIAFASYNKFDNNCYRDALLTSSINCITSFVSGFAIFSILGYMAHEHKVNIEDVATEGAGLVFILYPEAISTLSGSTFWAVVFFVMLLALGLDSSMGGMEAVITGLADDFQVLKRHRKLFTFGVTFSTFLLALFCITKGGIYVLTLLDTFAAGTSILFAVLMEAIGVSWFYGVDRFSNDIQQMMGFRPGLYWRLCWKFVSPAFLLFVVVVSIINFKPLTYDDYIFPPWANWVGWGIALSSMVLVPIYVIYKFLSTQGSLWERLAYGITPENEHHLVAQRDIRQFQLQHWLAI
Description: as §5
(§6) All statistical tests and data analyses were performed in GraphPad Prism 9 (GraphPad Software, Prism 9 version 9.2.0, San Diego, CA, USA). Unless otherwise specified, all data points are given as mean ± SEM (standard error of the mean) or mean [SEM interval]. Data obtained from competition binding analyses were fitted as a non-linear regression (curve fit) through an inhibitory dose–response model (variable slope), otherwise known as a four-parameter logistic equation. The non-specific binding condition was subtracted before fitting the data. From the logIC50, the IC50 can be obtained and, therefore, the affinity (Ki) derived through the Cheng-Prusoff equation. For homologous competitive binding, whereby the same compound is used as both the labelled and unlabelled ligand, the Cheng-Prusoff equation can be converted to obtain the Kd. Data plotted as a percentage of the control (absence of the competitive ligand) unless otherwise stated, i.e., normalized to the Bmax determined from the sigmoidal fit. Saturation binding data were fitted after subtracting the non-specific binding from each condition. […]

[6] = molecular target: hNET; design: method as in ref 32 (Tatsumi et al. 1997); conditions: footnote a: hNET in HEK293 cells, [3H]nisoxetine; ref 32 (Tatsumi et al. 1997); read-out: NET Ki; cited from earlier work
[7] = molecular target: NET; design: method as in ref 33 (Agoston et al. 1997); conditions: footnote c: [3H]unknown ligand for NET; ref 33 (Agoston et al. 1997); cited from earlier work
[8] = molecular target: DAT; design: method as in ref 34 (Cao et al. 2016); conditions: footnote d: rat caudate putamen membranes, [3H]CFT; ref 34 (Cao et al. 2016); cited from earlier work
[9] = molecular target: T4, purified dDAT (dDAT-His8) (Drosophila melanogaster, UniProt Q7K4Y6); test: Homologous competitive [3H]mazindol binding to purified dDAT (SPA)
T4 construct: Full length dDAT with a C-terminal thrombin cleavage site followed by a His8-tag; made in house; host or cells: Expi293F suspension cells transduced with BacMam baculovirus (virus produced in Sf9)
T4 sequence (Q7K4Y6 whole entry): as the sequence (Q7K4Y6 whole entry) above
Description: as §1, §2
as §6, with “condition. The data were fitted as a non-linear regression (curve fit) through a sigmoidal dose–response (variable slope) model to determine the Kd. Ion binding study data were plotted using the same four-parameter logistic equation.” for “condition.”

[10] = molecular target: T4, purified dDAT (dDAT-His8); test: Saturation binding of [3H]nisoxetine to purified dDAT (SPA)
Description: as §1
All experiments were performed in triplicates.
as §6

[11] = molecular target: T5, hDAT expressed in COS-7 cells (Homo sapiens, UniProt Q01959); test: Competition binding of [3H]CFT in COS-7 cells expressing hDAT; conditions: hDAT in COS-7 cells; competitive inhibition of [3H]CFT binding; mean [SEM interval]; read-out: DAT Ki
T5 construct: expressed in transfected cells; host or cells: COS-7 cells, transient transfection
T5 sequence (Q01959 whole entry): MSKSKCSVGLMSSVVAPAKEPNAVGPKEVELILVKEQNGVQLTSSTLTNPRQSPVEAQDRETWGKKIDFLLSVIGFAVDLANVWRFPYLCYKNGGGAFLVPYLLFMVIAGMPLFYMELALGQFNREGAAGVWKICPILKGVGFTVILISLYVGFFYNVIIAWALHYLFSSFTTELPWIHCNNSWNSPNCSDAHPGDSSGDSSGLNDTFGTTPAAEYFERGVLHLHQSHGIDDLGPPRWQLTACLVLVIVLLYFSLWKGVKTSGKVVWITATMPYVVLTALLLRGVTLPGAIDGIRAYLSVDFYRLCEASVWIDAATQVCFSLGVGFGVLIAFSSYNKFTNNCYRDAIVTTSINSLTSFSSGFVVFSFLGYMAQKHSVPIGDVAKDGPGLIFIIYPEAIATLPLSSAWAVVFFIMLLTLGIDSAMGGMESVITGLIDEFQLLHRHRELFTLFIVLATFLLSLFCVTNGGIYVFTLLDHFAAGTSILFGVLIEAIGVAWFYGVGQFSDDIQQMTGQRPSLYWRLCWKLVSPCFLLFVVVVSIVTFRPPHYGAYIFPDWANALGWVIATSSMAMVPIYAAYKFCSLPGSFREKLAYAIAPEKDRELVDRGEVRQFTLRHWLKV
Description: as §4, §5
All statistical tests and data analyses were performed in GraphPad Prism 9 (GraphPad Software, Prism 9 version 9.2.0, San Diego, CA, USA). Unless otherwise specified, all data points are given as mean ± SEM (standard error of the mean) or mean [SEM interval]. […] Data plotted as a percentage of the control (absence of the competitive ligand) unless otherwise stated, i.e., normalized to the Bmax determined from the sigmoidal fit. […]

[12] = molecular target: hNET; design: method as in ref 35 (Owens et al. 2001); conditions: footnote e: hNET in HEK293 cells, [3H]nisoxetine; ref 35 (Owens et al. 2001); read-out: NET Ki; cited from earlier work
[13] = molecular target: hDAT; design: method as in ref 35 (Owens et al. 2001); conditions: footnote e: hDAT in HEK293 cells, [125I]RTI-55; ref 35 (Owens et al. 2001); read-out: DAT Ki; cited from earlier work
[14] = dDAT in COS-7 cells, competitive inhibition of [3H]nisoxetine binding, mean [SEM interval]

Compound	Ki ([1]; read-out: dDAT Ki) [nM]	IC50 [3] [nM]	further results
CN(C)CCC=C1c2ccccc2CCc2ccccc21 [Amitriptyline]	97	30 ± 1	Ki [2]: 3250 ± 20 nM
CC(NC(C)(C)C)C(=O)c1cccc(Cl)c1 (stereo not drawn) [Bupropion]	7500	48000 ± 5000	
COC(=O)[C@H]1[C@@H](c2ccc(F)cc2)C[C@@H]2CC[C@H]1N2C [CFT]	25000		Ki [4, 14]: 3900 nM; Ki [5]: 357 nM
COC(=O)[C@H]1[C@@H](OC(=O)c2ccccc2)C[C@@H]2CC[C@H]1N2C [Cocaine]	20000	2660 ± 230	Ki [6]: 1420 ± 50 nM
C[C@H](N)Cc1ccccc1 [D-amphetamine]	18000	6600 ± 900	
NCCc1ccc(O)c(O)c1 [Dopamine]		2900 ± 500	
CN(C)CCCN1c2ccccc2CCc2ccccc21 [Imipramine]		30 ± 10	
CCCCN1[C@@H]2CC[C@H]1CC(OC(c1ccc(F)cc1)c1ccc(F)cc1)C2 (stereo partly drawn) [JHW007]	3100		Ki [7]: 1330 nM
[O-][S+](CCN1CCN(CC(O)Cc2ccccc2)CC1)C(c1ccc(F)cc1)c1ccc(F)cc1 (stereo not drawn) [JJC8-088]	33000		Ki [8]: 2.53 ± 0.25 nM
CC(O)CN1CCN(CC[S+]([O-])C(c2ccc(F)cc2)c2ccc(F)cc2)CC1 (stereo not drawn) [JJC8-091]	199000		
OC1(c2ccc(Cl)cc2)c2ccccc2C2=NCCN21 (stereo not drawn) [Mazindol]	2800	4.4 ± 2.2	Ki ([1]; Ki, first (higher affinity) binding population of biphasic curve, [3H]nisoxetine displacement, T = 2 h at RT, two-site fit, representative dataset, estimated): 0.2 nM; Ki ([1]; read-out: Ki, second (lower affinity) binding population of biphasic curve, [3H]nisoxetine displacement, T = 2 h at RT, two-site fit, representative dataset, estimated): 402 nM; IC50 [9]: 25 nM; Kd [9]: 13000 nM; IC50 ([9]; read-out: IC50, second (lower affinity) binding population of biphasic curve, homologous [3H]mazindol competition, biphasic dataset T = 16 h, two-site fit, estimated): 79000 nM; Ki [6]: 0.45 ± 0.03 nM
CN[C@@H](C)Cc1ccccc1 [Methamphetamine]	13000		Ki [2]: 2800 ± 100 nM; Ki [6]: 660 ± 20 nM
NC(=O)C[S+]([O-])C(c1ccccc1)c1ccccc1 (stereo not drawn) [Modafinil]	554000		
CNCCC(Oc1ccccc1OC)c1ccccc1 (stereo not drawn) [Nisoxetine]		5.6 ± 2.2	Kd [4]: 70 nM; Kd [10]: 31 nM
NC[C@H](O)c1ccc(O)c(O)c1 [Norepinephrine]	184000	49000 ± 9000	Ki [4]: 68000 nM
CNCCC=C1c2ccccc2CCc2ccccc21 [Nortriptyline]			Ki [2]: 1140 ± 30 nM
Fc1ccc([C@@H]2CCNC[C@H]2COc2ccc3c(c2)OCO3)cc1 [Paroxetine]	322	22 ± 4	
COC(=O)[C@H]1C(c2ccc(I)cc2)C[C@@H]2CC[C@H]1N2C (stereo partly drawn) [RTI-55]	130	66 ± 10	Ki [4, 14]: 299 nM; Ki [5]: 4 nM; Ki [11]: 0.5 nM
CN(C)CCC[C@@]1(c2ccc(F)cc2)OCc2cc(C#N)ccc21 [S-citalopram]	24000	8100 ± 2100	Ki [12]: 7840 ± 998 nM; Ki [13]: 27400 ± 3110 nM
NCCc1c[nH]c2ccc(O)cc12 [Serotonin]	173000	43000 ± 7000	Ki [2]: > 100000 nM; Ki [6]: > 100000 nM
